From patent publication US8703156B2, “Liquid formulation for deferiprone with palatable taste” (Apotex Technologies Inc., priority 2008, dated 2014)
Peptide text beside a SMILES is read from it.

Experiment: degradation of Aspartame following 2 months storage
Assay type: physicochemical
Conditions: pH below 3.4; confirmed by degradation following 2 months storage
From the text: The sweetener was changed to Aspartame. After another round of taste testing the formulation with 10 g/L of Aspartame became the most acceptable formulation in terms of taste tolerability, but Aspartame is unstable at pH below 3.4 and this was confirmed by testing the degradation of Aspartame following 2 months storage.

COC(=O)[C@H](Cc1ccccc1)NC(=O)[C@@H](N)CC(=O)O [Aspartame] (HELM PEPTIDE1{D.F.[CO[*:1]]}$$$$V2.0)
stability of Aspartame: unstable
